Measurements reported in article PMC5340827 (European Journal of Drug Metabolism and Pharmacokinetics, 2016).

Experiments:
[1] = tested on: LH, FSH and 17β-estradiol in the serum; assay: Hormonal profile; type: in vivo, rat; details: s.c. 1 µg/kg; for highest estradiol concentration, suspension form: 1 h after injection
[2] = cited from earlier work
[3] = Pharmacokinetics and bioavailability after single s.c. injection; details: for extent of biological availability (EBA), solution relative to suspension: (AUCsolution/AUCsuspension) × 100 %, from AUC0−∞; for presence in the plasma after injection in the form of suspension: 24 h after s.c. 6 mg/kg

extent of biological availability (EBA), solution relative to suspension [3] | presence in the plasma after injection in the form of suspension [3] | EBA of dalarelin relative to buserelin, form of solution ([3]; (AUCdalarelin solution/AUCbuserelin solution) × 100 %) | EBA of dalarelin relative to buserelin, form of suspension ([3]; (AUCdalarelin suspension/AUCbuserelin suspension) × 100 %) | Substance | maximal concentration of estradiol, form of solution ([1]; solution, 30 min after injection) | time of maximal concentration of estradiol, form of solution ([1]; solution) | highest estradiol concentration, suspension form [1] | time of highest concentration of FSH, suspension form [1] | activity / relative potency in relation to natural GnRH [2]
13% | detectable in the plasma even after 24 h | – | – | buserelin | 45.7 pg/mL | 30 min | 21.4 pg/mL | 4 h | 20 times
8% | detectable in the plasma even after 24 h | 53% | 83% | dalarelin | – | 30 min | 24.2 pg/mL | 2 h | roughly 14 times
